Test results as given in PubChem BioAssay (NCI).
Where “and” joins values, the source holds several entries; their conditions need not be identical. Identical values can stand only once.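 Method: 48-hour compound exposure of cells in 96-well plates, five concentrations, linear interpolation of endpoints. Definition used: TGI = concentration required for complete inhibition of growth.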

How the values were obtained:
Test in all cases: NCI anticancer screen, dose series, 48 h
U251 CNS = test system: U251 CNS
SNB-19 CNS = test system: SNB-19 CNS
OVCAR-5 ovarian = test system: OVCAR-5 ovarian
KM12 colon = test system: KM12 colon
MDA-MB-435 = test system: MDA-MB-435
SR leukemia = test system: SR leukemia
UO-31 renal = test system: UO-31 renal
HT29 colon = test system: HT29 colon
SW-620 colon = test system: SW-620 colon
SF-295 CNS = test system: SF-295 CNS
IGROV1 ovarian = test system: IGROV1 ovarian
MOLT-4 leukemia = test system: MOLT-4 leukemia
A549 NSCLC = test system: A549 NSCLC
SF-268 CNS = test system: SF-268 CNS
LOX IMVI melanoma = test system: LOX IMVI melanoma
DU-145 prostate = test system: DU-145 prostate

SMILES | TGI (U251 CNS) | TGI (SNB-19 CNS) | TGI (OVCAR-5 ovarian) | TGI (KM12 colon) | TGI (MDA-MB-435) | TGI (SR leukemia) | TGI (UO-31 renal) | TGI (HT29 colon) | TGI (SW-620 colon) | TGI (SF-295 CNS) | TGI (IGROV1 ovarian) | TGI (MOLT-4 leukemia) | TGI (A549 NSCLC) | TGI (SF-268 CNS) | TGI (LOX IMVI melanoma) | TGI (DU-145 prostate)
OC1(c2cccs2)c2cccc(Cl)c2C(O)(c2cccs2)c2c(Cl)cccc21 (centres undefined) | > 100 µM | > 100 µM | > 100 µM | > 100 µM | > 100 µM | > 100 µM | > 100 µM | > 100 µM | > 100 µM | > 100 µM | > 100 µM | > 100 µM | > 100 µM | 75 µM | > 100 µM | > 100 µM
O=C1CCC2C(O)c3cc4c(cc3C(c3ccc5c(c3)OCO5)N12)OCO4 (centres undefined) | 60.9 µM | > 100 µM | > 100 µM | > 100 µM | > 100 µM | > 100 µM | > 100 µM | > 100 µM | > 100 µM | > 100 µM | > 100 µM | > 100 µM | > 100 µM | 52.5 µM | > 100 µM | > 100 µM
COc1cc(O)c2c(=O)cc(-c3ccc(O)cc3O)oc2c1CC=C(C)C | 38.2 µM | 44.5 µM | > 100 µM | 21.5 µM | > 100 µM | 26.3 µM | 33.5 µM | 16.3 µM | > 100 µM | 30.2 µM | 39.6 µM | 83.2 µM | 29.7 µM | 63.4 µM | 28.3 µM | > 100 µM
O=C1c2cc(Cl)ccc2-n2cnnc2C2CSCN12 (centres undefined) | > 100 µM | > 100 µM | > 100 µM | > 100 µM | > 100 µM | > 100 µM | > 100 µM | > 100 µM | > 100 µM | > 100 µM | > 100 µM | > 100 µM | > 100 µM | > 100 µM | > 100 µM | > 100 µM
CCOC(=O)P(=O)(O)c1ccc(N(C)Cc2ccccc2)cc1 | > 100 µM | > 100 µM | > 100 µM | > 100 µM | > 100 µM | > 100 µM | > 100 µM | > 100 µM | > 100 µM | > 100 µM | > 100 µM | > 100 µM | > 100 µM | > 100 µM | > 100 µM | > 100 µM
C=CCOc1cccc(C2(O)c3ccccc3C3=NCCCN32)c1 (centres undefined) | 32.5 µM | 18.4 µM | > 77.9 µM | 24.7 µM | 26 µM | 32.6 µM | 29.4 µM | 27.2 µM | 28.7 µM | 7.83 µM | > 37.4 µM | 40 µM | > 39.4 µM | > 100 µM | 29.4 µM | > 100 µM
COc1ccc(-c2c(C#N)c(N)n(C3OCC(OC(C)=O)C(OC(C)=O)C3OC(C)=O)c(=S)c2C#N)cc1 (centres undefined) | > 100 µM | > 100 µM | > 100 µM | > 100 µM | 98.6 µM and > 100 µM | 39.5 µM and 54.6 µM | 82.6 µM and > 100 µM | > 100 µM | > 100 µM | > 100 µM | > 100 µM | 51.1 µM and 48 µM | > 100 µM | > 100 µM | > 100 µM | > 100 µM
O=C1/C(=C/c2cccc(F)c2)CCCc2ccccc21 | 29.7 µM | 29.4 µM | 28.3 µM | 24.4 µM | 29.7 µM | 32.8 µM | 29.9 µM | 25.9 µM | 30.5 µM | 29.7 µM | 24.6 µM | 43.6 µM | 38.2 µM | 28.1 µM | 30.1 µM | 30.6 µM
O=C1/C(=C/c2cccc(Br)c2)CCc2ccccc21 | 28 µM | 27.9 µM | 28.3 µM | 20.7 µM | 25.4 µM | 18.4 µM | 26.7 µM | 27.1 µM | 17.9 µM | 28.5 µM | 24.7 µM | 42.1 µM | 34.6 µM | 21.8 µM | 28.5 µM | 30.9 µM
CC[C@]1(Cc2ccc(OC)c(OC)c2)C=[N+]([O-])O[C@H](OC2CCCC2(c2ccccc2)c2ccccc2)[C@@H]1OC(=O)c1ccccc1 (some centres undefined) | > 100 µM | > 100 µM | > 100 µM | 22.9 µM | > 46.3 µM | > 100 µM | > 100 µM | > 71.1 µM | > 100 µM | > 65.4 µM | > 100 µM | > 21.9 µM | > 100 µM | > 100 µM | > 27.5 µM | > 56.3 µM
C(=C\c1cccs1)/c1cccc(/C=C/c2cccs2)n1 | > 100 µM | > 100 µM | > 100 µM | > 100 µM | > 100 µM | > 100 µM | > 100 µM | > 100 µM | > 100 µM | > 100 µM | > 100 µM | > 100 µM | > 100 µM | 6.9 µM | > 100 µM | > 100 µM
CN(C)Nc1cc(=O)[nH]c(=O)[nH]1 | > 100 µM | > 100 µM | > 100 µM | > 100 µM | > 100 µM | > 100 µM | > 100 µM | > 100 µM | > 100 µM | > 100 µM | > 100 µM | > 100 µM | > 100 µM | > 100 µM | > 100 µM | > 100 µM
Cc1csc2c(=O)n(C3OC(CO)C(O)C3O)c(=O)[nH]c12 (centres undefined) | > 100 µM | > 100 µM | > 100 µM | > 100 µM | > 100 µM | > 100 µM | > 100 µM | > 100 µM | > 100 µM | > 100 µM | > 100 µM | > 100 µM | > 100 µM | > 100 µM | > 100 µM | > 100 µM
COc1ccc(Nc2nnc(-c3nsc4ccccc34)s2)cc1 | > 100 µM | > 100 µM | > 100 µM | > 100 µM | > 100 µM | > 100 µM | 35 µM | > 100 µM | > 100 µM | > 100 µM | > 100 µM | > 100 µM | > 100 µM | > 100 µM | > 100 µM | > 100 µM
Cc1nc2ccccc2n1COC(Cn1ccnc1)c1ccc(Cl)cc1Cl (centres undefined) | > 100 µM | > 100 µM | > 100 µM | > 100 µM | > 100 µM | > 100 µM | > 100 µM | > 100 µM | > 100 µM | > 100 µM | > 100 µM | > 100 µM | > 100 µM | > 100 µM | > 100 µM | > 100 µM
[N-]=[N+]=Nc1ccccc1C(=O)N1C(=O)c2ccccc2C(=O)N(C(=O)c2ccccc2N=[N+]=[N-])c2ccccc21 | > 100 µM | > 100 µM | > 100 µM | > 100 µM | > 100 µM | > 100 µM | > 100 µM | > 100 µM | > 100 µM | > 100 µM | > 100 µM | 50.7 µM | > 100 µM | > 100 µM | > 100 µM | > 100 µM
Cn1c2ccccc2c2c(-c3ccccc3)cc3c(c21)C(=O)C=CC3=O | > 9.67 µM | > 10 µM | > 10 µM | > 8.77 µM | 4.32 µM | 0.817 µM | 3.37 µM | > 9 µM | 2.21 µM | > 10 µM | 5.5 µM | 1.1 µM | > 10 µM | > 9.19 µM | > 10 µM | > 10 µM
O=C(CN1CCCCC1)Nc1ccc2sc3ccccc3c(=O)c2n1 | 35.1 µM | 59.8 µM | 38.9 µM | 38.7 µM | 26.2 µM | > 100 µM | 21.6 µM | > 100 µM | 31.4 µM | 36.6 µM | 37.4 µM | 30 µM | 31.7 µM | 74.3 µM | 26.4 µM | > 100 µM
O=C(NC1=NCC(CN2CCN(c3ccccc3)CC2)O1)Nc1ccccc1 (centres undefined) | > 100 µM | > 100 µM | > 100 µM | > 100 µM | > 100 µM | > 100 µM | > 100 µM | > 100 µM | > 100 µM | > 100 µM | > 100 µM | > 100 µM | > 100 µM | > 100 µM | > 100 µM | > 100 µM
